Target: T1, Isoform 2 of Nuclear receptor ROR-alpha (Alpha-2) (Homo sapiens, UniProt P35398)
T1 sequence (P35398 whole entry): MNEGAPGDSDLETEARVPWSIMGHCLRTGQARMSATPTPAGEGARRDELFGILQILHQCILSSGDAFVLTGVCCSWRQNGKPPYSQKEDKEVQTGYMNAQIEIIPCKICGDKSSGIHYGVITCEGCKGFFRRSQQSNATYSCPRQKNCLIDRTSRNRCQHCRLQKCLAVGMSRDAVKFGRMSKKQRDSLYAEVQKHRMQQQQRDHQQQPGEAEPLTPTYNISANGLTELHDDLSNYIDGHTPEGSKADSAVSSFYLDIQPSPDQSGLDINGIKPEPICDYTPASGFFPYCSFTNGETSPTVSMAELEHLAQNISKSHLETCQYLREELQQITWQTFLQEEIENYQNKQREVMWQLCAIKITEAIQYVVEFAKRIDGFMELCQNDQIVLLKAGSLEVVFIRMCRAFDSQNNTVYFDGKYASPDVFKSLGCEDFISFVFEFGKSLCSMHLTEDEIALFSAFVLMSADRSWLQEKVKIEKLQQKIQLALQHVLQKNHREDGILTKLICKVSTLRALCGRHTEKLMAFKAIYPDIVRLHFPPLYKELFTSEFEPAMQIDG
Assay: activators of RORA ligand-binding domain fusion – cell-based, CHO-K1, Gal4-RORA LBD, luciferase luminescence, counter-screen for SF-1 activator project, dose response (AID 675)

[1] = inactive by the depositor's call

SMILES | EC50 | EC50 [1]
COc1ccc(C(=O)CC=Nc2cccc(C)n2)cc1OC | 0.749 µM | –
CC(=O)c1c(C)[nH]c(C(=O)Nc2ccc3c(c2)OCCO3)c1C | 0.4 µM | –
COc1ccc2c(c1OC)C(=O)N1c3ccccc3SC21 (stereo not given) [1,2-dimethoxy-4bH-isoindolo[1,2-b][1,3]benzothiazol-11-one] | 0.766 µM | –
O=C(CSc1ccccn1)c1ccc2c(c1)OCO2 [1-(1,3-benzodioxol-5-yl)-2-(2-pyridinylthio)ethanone] | 1.23 µM | –
O=C(COc1ncnc2ccccc12)c1ccc2c(c1)OCCO2 [1-(2,3-dihydro-1,4-benzodioxin-6-yl)-2-(4-quinazolinyloxy)ethanone] | 0.615 µM | –
CCCn1c(C)cc(C(=O)COc2ncnc3sccc23)c1C [1-(2,5-dimethyl-1-propyl-3-pyrrolyl)-2-(4-thieno[2,3-d]pyrimidinyloxy)ethanone] | 1.99 µM | –
N#CCc1ccc(NC(=O)Nc2cccc(Cl)c2)cc1 [1-(3-chlorophenyl)-3-[4-(cyanomethyl)phenyl]urea] | 1.65 µM | –
CN(C)c1ccc(NC(=O)Nc2cccc(Cl)c2)cc1 [1-(3-chlorophenyl)-3-[4-(dimethylamino)phenyl]urea] | > 0.407 µM | –
Clc1ccc(-n2ncc3c(NCc4ccccn4)ncnc32)cc1 [1-(4-chlorophenyl)-N-(2-pyridinylmethyl)-4-pyrazolo[3,4-d]pyrimidinamine] | 2.29 µM | –
COc1ccc2nc(Nc3nc(C)c(C(C)=O)s3)sc2c1 [1-[2-[(6-methoxy-1,3-benzothiazol-2-yl)amino]-4-methyl-1,3-thiazol-5-yl]ethanone] | > 1.22 µM | –
O=C(Cc1ccccc1)n1nc(-c2ccccc2)nc1NCc1ccco1 [1-[5-(2-furanylmethylamino)-3-phenyl-1,2,4-triazol-1-yl]-2-phenylethanone] | > 11 µM | –
Fc1cnc(N2CCOCC2)nc1N1CCc2ccccc21 [1-[5-fluoro-2-(4-morpholinyl)-4-pyrimidinyl]indoline] | – | 10.2 µM
CCOC(=O)C1CCN(S(=O)(=O)c2ccc(-c3nc4ccccc4s3)s2)CC1 [1-[[5-(1,3-benzothiazol-2-yl)-2-thienyl]sulfonyl]isonipecotic acid ethyl ester] | 1.72 µM | –
COc1ccc2c(c1)CCc1c(C(=O)N3CCCCCC3)noc1-2 [1-azepanyl-(7-methoxy-4,5-dihydrobenzo[g][1,2]benzoxazol-3-yl)methanone] | 1.57 µM | –
COc1ccc(CNC(=O)NC2CCCCC2)cc1 [1-cyclohexyl-3-[(4-methoxyphenyl)methyl]urea] | > 99 µM | –
COc1ccc(-c2cc(C(=O)N3CCCCC3)no2)cc1OC [1-{[5-(3,4-dimethoxyphenyl)isoxazol-3-yl]carbonyl}piperidine] | 3.92 µM | –
Cc1cc(C(=O)OCC(=O)N2CCc3ccccc32)c(C)o1 [2,5-dimethyl-3-furancarboxylic acid [2-(2,3-dihydroindol-1-yl)-2-oxoethyl] ester] | 0.897 µM | –
CC(C)(C)n1ncc2c(=O)n(CC(=O)NCc3ccccc3Cl)cnc21 [2-(1-tert-butyl-4-keto-pyrazolo[3,4-d]pyrimidin-5-yl)-N-(2-chlorobenzyl)acetamide] | > 0.136 µM | –
COc1cc(N2CCCC2)c(OC)cc1C=c1sc2nc3ccccc3n2c1=O [2-(2,5-dimethoxy-4-pyrrolidino-benzylidene)thiazolo[3,2-a]benzimidazol-1-one] | 11 µM | –
CCn1c(SCC(=O)c2cccs2)nnc1-c1ccco1 [2-(4-Ethyl-5-furan-2-yl-4H-[1,2,4]triazol-3-ylsulfanyl)-1-thiophen-2-yl-ethanone] | 5.82 µM | –
CN(C)c1oc(-c2ccc(OCc3ccccc3)cc2)nc1C#N [2-(4-benzoxyphenyl)-5-(dimethylamino)oxazole-4-carbonitrile] | 2.22 µM | –
CCOc1ccc(N2C(=O)c3ccccc3C2O)cc1 (stereo not given) [2-(4-ethoxyphenyl)-3-hydroxy-3H-isoindol-1-one] | 0.886 µM | –
O=C(CSc1nc2ccccc2o1)Nc1nc2ccccc2s1 [2-(Benzooxazol-2-ylsulfanyl)-N-benzothiazol-2-yl-acetamide] | > 11 µM | –
Cc1cccc(-n2ccnc2SCC(=O)Nc2nccs2)c1 [2-[1-(3-methylphenyl)imidazol-2-yl]sulfanyl-N-(1,3-thiazol-2-yl)acetamide] | > 11 µM | –
C=CCn1c(C)cc(C(=O)CSc2nc(O)c3ccccc3n2)c1C [2-[2-(2,5-dimethyl-1-prop-2-enyl-pyrrol-3-yl)-2-oxidanylidene-ethyl]sulfanyl-1H-quinazolin-4-one] | 0.609 µM | –
OCCOCCNc1ncnc2c1cnn2-c1ccc(Cl)cc1 [2-[2-[[1-(4-chlorophenyl)-4-pyrazolo[3,4-d]pyrimidinyl]amino]ethoxy]ethanol] | 0.595 µM | –
CCOC(=O)CSc1nc2ccccc2c(=O)n1NC(=O)c1ccccc1 [2-[(3-benzamido-4-keto-quinazolin-2-yl)thio]acetic acid ethyl ester] | 0.933 µM | –
CCc1nnc(NC(=O)CSc2nc3c(cc2C#N)CCC3)s1 [2-[(3-cyano-1-pyrindan-2-yl)thio]-N-(5-ethyl-1,3,4-thiadiazol-2-yl)acetamide] | > 0.407 µM | –
CCOC(=O)CSc1nc(-c2ccncc2)ccc1C#N [2-[(3-cyano-6-pyridin-4-yl-2-pyridinyl)thio]acetic acid ethyl ester] | 1.71 µM | –
Cc1csc2nc(CSc3nc4ccccc4o3)cn12 [2-[(3-methyl-6-imidazo[2,1-b]thiazolyl)methylthio]-1,3-benzoxazole] | 3.92 µM | –

The remaining lines, values ahead:

EC50 | EC50 [1] | SMILES
6.79 µM | – | Nn1c(SCC(=O)Nc2ccc(F)cc2F)nnc1-c1cccnc1 [2-[(4-amino-5-pyridin-3-yl-1,2,4-triazol-3-yl)sulfanyl]-N-(2,4-difluorophenyl)acetamide]
1.23 µM | – | CCc1nnc(NC(=O)CSc2nc(C)c3c(c2C#N)CCCC3)s1 [2-[(4-cyano-1-methyl-5,6,7,8-tetrahydroisoquinolin-3-yl)sulfanyl]-N-(5-ethyl-1,3,4-thiadiazol-2-yl)acetamide]
> 99 µM | – | O=C1CCCC(=O)C1=CNc1ccc(O)cc1 [2-[(4-hydroxyanilino)methylidene]cyclohexane-1,3-dione]
5.65 µM | – | CCOC(=O)CSc1nc(-c2ccc3c(c2)OCO3)ccc1C#N [2-[[6-(1,3-benzodioxol-5-yl)-3-cyano-2-pyridinyl]thio]acetic acid ethyl ester]
3.19 µM | – | O=C(CNc1ccccc1)Nc1ccc(F)cc1 [2-anilino-N-(4-fluorophenyl)acetamide]
0.112 µM | – | Cc1nc2sc(-c3ccccc3)cc2c(=O)n1-n1cccc1 [2-methyl-6-phenyl-3-(1-pyrrolyl)-4-thieno[2,3-d]pyrimidinone]
0.786 µM | – | Cc1ccc(C(=O)Nc2nnc(-c3cccs3)s2)cc1C [3,4-dimethyl-N-(5-thiophen-2-yl-1,3,4-thiadiazol-2-yl)benzamide]
1.63 µM | – | Cc1ccc(-n2c(C)cc(C(=O)COC(=O)c3c(C)noc3C)c2C)cc1 [3,5-dimethyl-4-isoxazolecarboxylic acid [2-[2,5-dimethyl-1-(4-methylphenyl)-3-pyrrolyl]-2-oxoethyl] ester]
> 33 µM | – | COc1cc(C2c3c(c(O)n(-c4ccccc4)c3O)ON2c2ccccc2)ccc1O (stereo not given) [3-(3-methoxy-4-oxidanyl-phenyl)-2,5-diphenyl-3a,6a-dihydro-3H-pyrrolo[3,4-d][1,2]oxazole-4,6-dione]
> 0.407 µM | – | COc1ccc2nc3sc(C(=O)NCc4cccs4)c(N)c3cc2c1 [3-Amino-6-methoxy-thieno[2,3-b]quinoline-2-carboxylic acid (thiophen-2-ylmethyl)-amide]
3.69 µM | – | O=c1c2ccccc2nnn1CSc1nnc(COc2ccc(Cl)cc2)n1Cc1ccco1 [3-[[5-[(4-chloranylphenoxy)methyl]-4-(furan-2-ylmethyl)-1,2,4-triazol-3-yl]sulfanylmethyl]-1,2,3-benzotriazin-4-one]
1.73 µM | – | COc1cccc(C(=O)Nc2cccc(-c3nnc(-c4ccccc4)o3)c2)c1 [3-methoxy-N-[3-(5-phenyl-1,3,4-oxadiazol-2-yl)phenyl]benzamide]
0.693 µM | – | COc1ccc(-c2nc3c(Br)c(N)c(Br)cc3o2)cc1 [4,6-bis(bromanyl)-2-(4-methoxyphenyl)-1,3-benzoxazol-5-amine]
– | 11.3 µM | c1ccc2nc3c(nc2c1)c1ccccc1n3CCN1CCOCC1 [4-(2-indolo[3,2-b]quinoxalin-6-ylethyl)morpholine]
1.5 µM | – | COc1ccc(CNc2ccc(C(=O)O)cc2)cc1 [4-(p-anisylamino)benzoic acid]
> 3.67 µM | – | CCCOC(=O)c1ccc(NC(=O)C2CCCO2)cc1 (stereo not given) [4-(tetrahydrofuran-2-carbonylamino)benzoic acid propyl ester]
3.12 µM | – | COc1cccc2c(O)c(C(=O)NCc3cccs3)cnc12 [4-Hydroxy-8-methoxy-quinoline-3-carboxylic acid (thiophen-2-ylmethyl)-amide]
1.89 µM | – | Cc1cccnc1Nc1nc(-c2ccc(O)cc2O)cs1 [4-[2-(3-Methyl-pyridin-2-ylamino)-thiazol-4-yl]-benzene-1,3-diol]
> 11 µM | – | CC(C)(CC(=O)O)Cc1nc(-c2ccc(Cl)cc2)no1 [4-[3-(4-chlorophenyl)-1,2,4-oxadiazol-5-yl]-3,3-dimethyl-butanoic acid]
0.636 µM | – | CCOC(=O)N1CCN(S(=O)(=O)c2ccc(C(=O)Nc3sc4c(c3C#N)CCC4)cc2)CC1 [4-[4-[(3-cyano-5,6-dihydro-4H-cyclopenta[b]thiophen-2-yl)carbamoyl]phenyl]sulfonylpiperazine-1-carboxylic acid ethyl ester]
